Counter-ions that a name gives are not always drawn.
Biological target: T1, human calcium receptor (Homo sapiens, UniProt P41180)
T1 construct: expressed in transfected cells
T1 sequence (P41180 20-1078): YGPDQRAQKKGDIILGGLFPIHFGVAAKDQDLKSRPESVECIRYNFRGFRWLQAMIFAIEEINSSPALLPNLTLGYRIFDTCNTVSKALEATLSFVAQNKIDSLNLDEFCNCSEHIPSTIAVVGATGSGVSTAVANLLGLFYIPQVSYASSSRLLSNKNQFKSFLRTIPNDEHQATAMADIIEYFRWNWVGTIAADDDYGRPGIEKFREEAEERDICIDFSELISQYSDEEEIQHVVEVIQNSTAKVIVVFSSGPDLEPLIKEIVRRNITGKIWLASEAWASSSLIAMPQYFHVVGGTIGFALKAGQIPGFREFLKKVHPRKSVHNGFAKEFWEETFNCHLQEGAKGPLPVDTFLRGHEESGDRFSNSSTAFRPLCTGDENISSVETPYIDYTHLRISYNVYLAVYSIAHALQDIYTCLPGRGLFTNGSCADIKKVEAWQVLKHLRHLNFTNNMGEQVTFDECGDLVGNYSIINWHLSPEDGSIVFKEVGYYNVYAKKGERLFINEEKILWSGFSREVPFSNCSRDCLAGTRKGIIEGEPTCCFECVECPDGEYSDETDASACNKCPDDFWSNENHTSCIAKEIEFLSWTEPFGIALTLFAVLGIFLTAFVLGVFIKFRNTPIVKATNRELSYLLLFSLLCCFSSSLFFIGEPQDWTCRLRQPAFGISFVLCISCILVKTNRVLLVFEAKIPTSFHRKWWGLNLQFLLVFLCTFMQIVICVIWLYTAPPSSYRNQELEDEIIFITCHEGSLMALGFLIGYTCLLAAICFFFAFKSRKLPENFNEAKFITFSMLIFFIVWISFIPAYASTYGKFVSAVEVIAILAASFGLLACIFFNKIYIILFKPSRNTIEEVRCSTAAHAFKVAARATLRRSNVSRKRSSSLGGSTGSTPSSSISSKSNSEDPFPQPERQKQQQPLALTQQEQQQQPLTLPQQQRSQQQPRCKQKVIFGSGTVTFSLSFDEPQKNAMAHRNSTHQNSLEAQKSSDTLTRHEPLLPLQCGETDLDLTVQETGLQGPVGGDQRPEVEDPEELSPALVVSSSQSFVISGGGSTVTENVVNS
Assay: Calcium Receptor Inhibitor Assay
Format: cell-based
Conditions: HEK 293 4.0–7 cells stably expressing the human calcium receptor; fluo-3; read-out: IC50 for blocking increases of intracellular Ca2+ elicited by extracellular Ca2+
In short: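 Intracellular Ca^2+ measured with fluo-3 at 37° C in stirred cell suspension. Buffer held 1 mM CaCl2 and 1 mg/mL D-glucose. Compound or vehicle added 90 seconds before extracellular Ca^2+ was raised from 1 to 2 mM, and calcilytic activity scored as concentration-dependent block of the intracellular Ca^2+ rise.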

SMILES | IC50
COc1ccc(CC(C)(C)NC[C@@H](O)COc2ccccc2)cc1 (single isomer, unassigned) [Compound 32, (R) or (S)—N-(2-Hydroxy-3-phenoxypropyl)-1,1-dimethyl-2-(4-methoxyphenyl)ethylamine Hydrochloride] | < 10 µM
COc1ccc(CC(C)(C)NCC(O)COc2cccc(OC)c2)cc1 (centres unmarked) [Compound 38, N-[2-Hydroxy-3-(3-methoxyphenoxy)propyl]-1,1-dimethyl-2-(4-methoxyphenyl)ethylamine Hydrochloride] | < 1 µM
